# In patent US20020114868A1, “Highly soluble and stable nutritional compositions containing calcium and magnesium” (priority 1999, published 2002):
# Where two headings read alike, the source gives them in different places. Marks after values point to notes of the source that are not given here.
# Details: 3.4 g calcium equivalent in 8 ounces deionized water at 68° F
smiles,measurement,setting,value
"CC(O)C(=O)[O-].O=C([O-])[C@H](O)[C@@H](O)[C@H](O)[C@H](O)CO.[Ca+2] [Gluconal ®, Calcium Gluconate Lactate]",Dissolution Rates as % of Maximum Solubility,elapsed time 00:00.0 mm:ss.s,0%
same,Dissolution Rates as % of Maximum Solubility,elapsed time 00:05.4 mm:ss.s,10%
same,Dissolution Rates as % of Maximum Solubility,elapsed time 00:10.7 mm:ss.s,20%
same,Dissolution Rates as % of Maximum Solubility,elapsed time 00:16.1 mm:ss.s,30%
same,Dissolution Rates as % of Maximum Solubility,elapsed time 00:21.5 mm:ss.s,50%
same,Dissolution Rates as % of Maximum Solubility,elapsed time 00:26.9 mm:ss.s,55%
same,Dissolution Rates as % of Maximum Solubility,elapsed time 00:32.2 mm:ss.s,45%
same,Dissolution Rates as % of Maximum Solubility,elapsed time 00:37.6 mm:ss.s,58%
same,Dissolution Rates as % of Maximum Solubility,elapsed time 00:43.0 mm:ss.s,63%
same,Dissolution Rates as % of Maximum Solubility,elapsed time 00:48.4 mm:ss.s,66%
same,Dissolution Rates as % of Maximum Solubility,elapsed time 00:53.7 mm:ss.s,71%
same,Dissolution Rates as % of Maximum Solubility,elapsed time 00:59.1 mm:ss.s,71%
same,Dissolution Rates as % of Maximum Solubility,elapsed time 01:04.5 mm:ss.s,77%
same,Dissolution Rates as % of Maximum Solubility,elapsed time 01:09.9 mm:ss.s,77%
same,Dissolution Rates as % of Maximum Solubility,elapsed time 01:15.3 mm:ss.s,80%
same,Dissolution Rates as % of Maximum Solubility,elapsed time 01:20.6 mm:ss.s,83%
same,Dissolution Rates as % of Maximum Solubility,elapsed time 01:36.7 mm:ss.s,85%
same,Dissolution Rates as % of Maximum Solubility,elapsed time 01:47.5 mm:ss.s,85%
same,Dissolution Rates as % of Maximum Solubility,elapsed time 01:58.2 mm:ss.s,86%
same,Dissolution Rates as % of Maximum Solubility,elapsed time 02:09.0 mm:ss.s,88%
same,Dissolution Rates as % of Maximum Solubility,elapsed time 03:00.0 mm:ss.s,98%
same,Dissolution Rates as % of Maximum Solubility,elapsed time 03:30.5 mm:ss.s,94%
same,Dissolution Rates as % of Maximum Solubility,elapsed time 04:00.0 mm:ss.s,99%
same,Dissolution Rates as % of Maximum Solubility,elapsed time 05:00.0 mm:ss.s,99%
same,Dissolution Rates as % of Maximum Solubility,elapsed time 06:00.0 mm:ss.s,99%
same,Dissolution Rates as % of Maximum Solubility,elapsed time 07:00.0 mm:ss.s,99%***
same,Dissolution Rates as % of Maximum Solubility,elapsed time 101:26.0 mm:ss.s,86%
